Assay results as given in ChEMBL document CHEMBL3507680, “University of Dundee, Gates Library screen for HepG2 cell viability”.

Test: Human HepG2 cell viability assay in 384 well format
Format: toxicity, cell-based
Set-up: dose 125 nL, time 70.5 hour; cytotoxicity at 70.5 h: concentration not given beside the values
Settings: HepG2 cells, read-out: Inhibition

Compound | cytotoxicity at 70.5 h [%]
Cn1nc(COc2cncnc2)c2c1CCN(Cc1ccccn1)C2 | 6.46
OC(CN1CCC(c2ccn[nH]2)CC1)c1cccc(F)c1 (stereo unspecified) | -28.7
Cc1cccc(NC(=O)[C@@H]2CCCN2Cc2nc3ccccc3o2)n1 | 4.7
COc1cc(CCC(=O)N2CCC(c3cncc(C)n3)CC2)on1 | -3.99
CS(=O)(=O)N1CCO[C@@H]2CN(C(=O)c3cccnc3)C[C@@H]2C1 | -2.16
c1cnc(N2CCOCC3(C2)CN(c2nccs2)CCO3)nc1 (stereo unspecified) | -7.1
Cc1cnn(CC2CCCN2C(=O)c2ccc(F)cc2Cl)c1 (stereo unspecified) | 0.634
CC(=O)N1CCN(CCCOc2ccccc2F)CC(C(N)=O)C1 (stereo unspecified) | -13.8
CCN(CC1CCCN(CCc2cccc(OC)c2)C1)C(=O)CO (stereo unspecified) | -0.648
CN(C)c1nc(N)nc(CSCCC(=O)Nc2cccc(Cl)c2)n1 | 19.2
Cc1ccc(-c2cc(-c3nc(CN4CCN(C)CC4)no3)n[nH]2)cc1 | 22.4
Cc1ncccc1OCC(=O)N1CCN[C@H]2CS(=O)(=O)C[C@H]21 | -11.5
CN1CCCN(C(=O)c2cnc(Cc3c(Cl)cccc3Cl)nc2O)CC1 | -3.04
CC(C)c1nn(C)c(N(C)C)c1CNCc1cccc2cccnc12 | 5.24
Nc1cc2c(nn1)CCN(C(=O)c1csc(-c3ccccc3)n1)C2 | -1.92
C[C@H](O)CNc1cc(-c2ccncc2)ncn1 | -0.809
CC(=O)N1CCCC(c2ccnc(N(C)C)n2)C1 (stereo unspecified) | -12.5
O=C(c1cc(Cl)cc2cccnc12)N1CCN(CCO)CC1 | -8.63
NC(=O)Cn1ccc(O)c(Cc2ccc(Cl)cc2Cl)c1=O | 3.22

Compound | cytotoxicity at 70.5 h [%]
CCN1CCN(S(=O)(=O)N2CCCC2)[C@H]2CS(=O)(=O)C[C@H]21 | -3.04
CCOc1ncccc1C(=O)NC1CC(=O)N(CC(F)(F)F)C1 (stereo unspecified) | -6.92
COc1ccc(Nc2c[nH]c(=O)[nH]c2=O)cc1 | 4.35
OCC1CCCN1c1cc(NCCc2c[nH]c3ccccc23)ncn1 (stereo unspecified) | 1.16
O=C(Cc1cccnc1)N1CCC2(CC1)CCN(C1CCOCC1)C2 | -3.79
CCn1c(SCC(=O)O)nnc1C(C)NC(=O)c1ccc(Cl)cc1 (stereo unspecified) | -8.19
COCCN1CCC2(CCCN(C(=O)c3ccoc3C)C2)C1=O (stereo unspecified) | -1.73
CN(C(=O)c1cc(Cl)c[nH]1)C1CCN(c2ccccn2)CC1 | 8.18
CO[C@H]1CCN(Cc2ccccn2)[C@@H]2CN(Cc3ccco3)C[C@H]12 | -20.1
CN(C)CCN1CCCC12CCCN(Cc1ccoc1)C2 (stereo unspecified) | 13.7
CCN(CC1CCCO1)C(=O)Nc1cc(C(N)=O)ccc1OC (stereo unspecified) | -5.25
Cc1cnn(CC2CCCCN2C(=O)CN(C)C2CC2)c1 (stereo unspecified) | 16.1
Cn1ncc2c1CCCC2NCc1cccc(OC2CCCC2)c1 (stereo unspecified) | -5.51
O=C(c1ccc(-c2cccs2)cc1F)N1CCN(CCO)CC1 | -2.06
c1ccc(Cc2nnc(CN3CCCC3Cn3cccn3)o2)cc1 (stereo unspecified) | -1.31
CC(C)c1cc(CN2CCC(N)CC2)on1 | 19.4
O=C1COc2ccc(Cl)cc2CN1CC1CC1 | -12
Cn1cc(C(=O)NCCc2ccc(OC3CCCC3)cc2)ccc1=O | 1.62
O=C(O)c1cccc(N2CCC(Oc3cccc(F)c3)CC2)n1 | -7

Compound | cytotoxicity at 70.5 h [%]
Cc1cnc(N2CCc3cc(C(=O)O)c(N(C)C)nc3CC2)nc1 | -7.94
O=C(CCCOc1ccccc1F)NCCCC(=O)Nc1cn[nH]c1 | -3.66
Cc1ccc(C(=O)N(C)Cc2cc(Br)cs2)c(=O)[nH]1 | -11.5
CCS(=O)(=O)NC[C@]12COC[C@H]1CN(Cc1cccnc1OC)C2 | -19.9
NCc1n[nH]c(=O)n1-c1cccc(Cl)c1Cl | -3.71
CCCN1C[C@H](NC(=O)c2ccccc2F)[C@@H](c2ccc(OC)cc2)C1 | 0.779
O=C(CC1CC1)N1CCC2(CC1)C(=O)NCCN2Cc1ccccc1 | 10.6
Cc1ncc(CNC(=O)N(C)C2CCN(c3ccccc3)C2=O)s1 (stereo unspecified) | 3.88
Cc1noc(C)c1CCC(=O)N1CCCC(n2cccn2)C1 (stereo unspecified) | -0.943
CC1CCN(CC(=O)N(C)CCc2noc(C3CC3)n2)C1=O (stereo unspecified) | -5.01
C=Cc1ccc(C(=O)N2CCCC(Nc3ccc(F)c(F)c3)C2)cc1 (stereo unspecified) | 26
C[C@@H]1CC[C@@H](C)N1C(=O)c1cc(COc2ccccc2)[nH]n1 | -0.483
Cc1nc2cc(CNC(=O)C3CC(=O)N(C4CCCC4)C3)ccc2n1C (stereo unspecified) | -7.58
O=C(NC1CCN(C2CC2)CC1)c1cc(Cl)ccc1-n1cnnn1 | 8.23
Cc1noc(C)c1C(=O)N[C@@H]1CCC[C@@H](Oc2ccccc2)[C@@H]1O | -1.7
COc1cc(C(=O)N(Cc2ccco2)C2CC2)cc(OC)c1OC | 23.7
CC(Oc1ccccc1C(F)(F)F)C(=O)NCC(N)=O (stereo unspecified) | -1.2
Cc1nc(C2CCCN2CCCc2nc3ccccc3o2)no1 (stereo unspecified) | -1.3
